Data taken from ChEMBL document CHEMBL4118193, “1,2,3,4,6-Penta-O-galloyl-β-d-glucose suppresses colon cancer through induction of tumor suppressor” (Bioorg Med Chem Lett, 2018).
Active and inactive are the calls of the source. No cut-off for these calls is given here.

How the values were obtained:
HCT-116 [1] = test: Induction of apoptosis in human HCT116 cells assessed as live cells at 10 uM after 48 hrs by Annexin-V and dead cell assay (reference value: 96.75%); format: functional
HT-29 [2] = test: Cell cycle arrest in human HT-29 cells assessed as accumulation at S phase at 10 uM after 48 hrs (reference value: 9.7%); format: functional
HCT-116 [3] = test: Induction of apoptosis in human HCT116 cells assessed as cleaved caspase-3 protein level at 10 uM after 48 hrs by Western blot method relative to caspase-3; format: functional
HT-29 [4] = test: Induction of apoptosis in human HT-29 cells assessed as CDK2 protein level at 2.5 uM after 48 hrs by Western blot method relative to beta-actin; format: functional
HCT-116 [5] = test: Cell cycle arrest in human HCT116 cells assessed as accumulation at G0/G1 phase at 10 uM after 48 hrs (reference value: 38.5%); format: functional
HCT-116 [6] = test: Cell cycle arrest in human HCT116 cells assessed as accumulation at G2/M phase at 2.5 uM after 48 hrs (reference value: 21.5%); format: functional
HT-29 [7] = test: Cell cycle arrest in human HT-29 cells assessed as accumulation at G0/G1 phase at 1 uM after 48 hrs (reference value: 53.9%); format: functional
HT-29 [8] = test: Induction of apoptosis in human HT-29 cells assessed as in p53 protein level at 2.5 uM after 48 hrs by Western blot method relative to beta-actin; format: functional
HCT-116 [9] = test: Induction of apoptosis in human HCT116 cells assessed as increase in caspase-3/7 activity at 1 to 10 uM measured after 48 hrs by Caspase-Glo 3/7 assay; format: functional, cell-based
HT-29 [10] = test: Induction of apoptosis in human HT-29 cells assessed as Bcl-2 protein level at 5 uM after 48 hrs by Western blot method relative to beta-actin; format: functional
HCT-116 [11] = test: Induction of apoptosis in human HCT116 cells assessed as Bcl-2 protein level at 10 uM after 48 hrs by Western blot method relative to beta-actin; format: functional
HT-29 [12] = test: Cell cycle arrest in human HT-29 cells assessed as accumulation at G0/G1 phase at 2.5 uM after 48 hrs (reference value: 53.9%); format: functional
HT-29 [13] = test: Cell cycle arrest in human HT-29 cells assessed as accumulation at G0/G1 phase at 5 uM after 48 hrs (reference value: 53.9%); format: functional
HT-29 [14] = test: Induction of apoptosis in human HT-29 cells assessed as p21 protein level at 10 uM after 48 hrs by Western blot method relative to beta-actin; format: functional
HCT-116 [15] = test: Cytotoxicity against human HCT116 cells at 1 to 10 uM after 48 hrs by CytoTox-96 non-radioactive assay; format: functional, cell-based
HCT-116 [16] = test: Induction of apoptosis in human HCT116 cells assessed as early apoptotic cells at 5 uM after 48 hrs by Annexin-V and dead cell assay (reference value: 1.70%); format: functional
HT-29 [17] = test: Antiproliferative activity against human HT-29 cells at 1 to 10 uM after 48 hrs by CytoTox-96 non-radioactive assay; format: functional, cell-based
HCT-116 [18] = test: Induction of apoptosis in human HCT116 cells assessed as live cells at 2.5 uM after 48 hrs by Annexin-V and dead cell assay (reference value: 96.75%); format: functional
HT-29 [19] = test: Induction of apoptosis in human HT-29 cells assessed as CDK2 protein level at 10 uM after 48 hrs by Western blot method relative to beta-actin; format: functional
HT-29 [20] = test: Induction of apoptosis in human HT-29 cells assessed as caspase-3 protein level at 2.5 uM after 48 hrs by Western blot method relative to beta-actin; format: functional
HT-29 [21] = test: Cell cycle arrest in human HT-29 cells assessed as accumulation at S phase at 2.5 uM after 48 hrs (reference value: 9.7%); format: functional
HCT-116 [22] = test: Induction of apoptosis in human HCT116 cells assessed as necrotic cells at 5 uM after 48 hrs by Annexin-V and dead cell assay (reference value: 0.10%); format: functional
HT-29 [23] = test: Induction of apoptosis in human HT-29 cells assessed as cleaved caspase-3 protein level at 2.5 uM after 48 hrs by Western blot method relative to caspase-3; format: functional
HT-29 [24] = test: Induction of apoptosis in human HT-29 cells assessed as in p53 protein level at 5 uM after 48 hrs by Western blot method relative to beta-actin; format: functional
HCT-116 [25] = test: Induction of apoptosis in human HCT116 cells assessed as live cells at 1 uM after 48 hrs by Annexin-V and dead cell assay (reference value: 96.75%); format: functional
HCT-116 [26] = test: Cell cycle arrest in human HCT116 cells assessed as accumulation at G2/M phase at 5 uM after 48 hrs (reference value: 21.5%); format: functional
HT-29 [27] = test: Induction of apoptosis in human HT-29 cells assessed as cyclin E protein level at 1 uM after 48 hrs by Western blot method relative to beta-actin; format: functional
HT-29 [28] = test: Induction of apoptosis in human HT-29 cells assessed as CDK2 protein level at 1 uM after 48 hrs by Western blot method relative to beta-actin; format: functional
HCT-116 [29] = test: Induction of apoptosis in human HCT116 cells assessed as caspase-3 protein level at 5 uM after 48 hrs by Western blot method relative to beta-actin; format: functional
HT-29 [30] = test: Induction of apoptosis in human HT-29 cells assessed as caspase-3 protein level at 10 uM after 48 hrs by Western blot method relative to beta-actin; format: functional
HCT-116 [31] = test: Induction of apoptosis in human HCT116 cells assessed as cyclin E protein level at 10 uM after 48 hrs by Western blot method relative to beta-actin; format: functional
HCT-116 [32] = test: Cell cycle arrest in human HCT116 cells assessed as accumulation at G2/M phase at 10 uM after 48 hrs (reference value: 21.5%); format: functional

O=C(OC[C@H]1O[C@@H](OC(=O)c2cc(O)c(O)c(O)c2)[C@H](OC(=O)c2cc(O)c(O)c(O)c2)[C@@H](OC(=O)c2cc(O)c(O)c(O)c2)[C@@H]1OC(=O)c1cc(O)c(O)c(O)c1)c1cc(O)c(O)c(O)c1 [PENTAGALLOYL GLUCOSE]
Activity (HCT-116 [1]): 90.45% | Activity (HT-29 [2]): 13.9% | fold change (FC) (HCT-116 [3]): 1.7 | fold change (FC) (HT-29 [4]): 0.9 | Activity (HCT-116 [5]): 32.2% | Activity (HCT-116 [6]): 20.5% | Activity (HT-29 [7]): 51.3% | fold change (FC) (HT-29 [8]): 4.4 | Activity (HCT-116 [9]): Active | fold change (FC) (HT-29 [10]): 0.4 | fold change (FC) (HCT-116 [11]): 0.7 | Activity (HT-29 [12]): 47.2% | Activity (HT-29 [13]): 43.9% | fold change (FC) (HT-29 [14]): 0.1 | Activity (HCT-116 [15]): Active | Activity (HCT-116 [16]): 1.85% | Activity (HT-29 [17]): Active | Activity (HCT-116 [18]): 97.55% | fold change (FC) (HT-29 [19]): 0.8 | fold change (FC) (HT-29 [20]): 4.7 | Activity (HT-29 [21]): 13.4% | Activity (HCT-116 [22]): 0.45% | fold change (FC) (HT-29 [23]): 6 | fold change (FC) (HT-29 [24]): 3 | Activity (HCT-116 [25]): 98.25% | Activity (HCT-116 [26]): 20.9% | fold change (FC) (HT-29 [27]): 1.2 | fold change (FC) (HT-29 [28]): 0.9 | fold change (FC) (HCT-116 [29]): 309.9 | fold change (FC) (HT-29 [30]): 5.8 | fold change (FC) (HCT-116 [31]): 0.5 | Activity (HCT-116 [32]): 18.1%
